{"source": "patent US8455251B2", "about": "“Method for isolating and culturing adult stem cells derived from human amniotic epithelium” (RNL Bio Co., Ltd., priority 2007, dated 2013)", "type_in_all_cases": "cell-based, human", "key": {"[1]": {"tested_on": "amniotic epithelial cells", "experiment": "Isolation of amniotic epithelial cells from amniotic tissue, living cells counted by trypan blue", "experimental": "5 g of amniotic tissue was weighed and washed with HBSS. For stable isolation of amniotic epithelial cells, the washing process was carried out using HBSS buffer more similar to the constituents of the human body rather than using general PBS. The washed amniotic tissue was transferred into a 50-ml tube, and 10 mM DTT was added thereto. After treatment with DTT for 30 minutes, the supernatant was discarded, the amniotic tissue was finely cut, and the finely cut amniotic tissue was treated with fresh 0.05% trypsin-EDTA at 37° C. for 42 minutes under stirring, thus chemically degrading the tissue. The chemically degraded tissue was vortexed for 1 minute, and then it was primarily filtered through a 1-mm mesh and secondarily filtered through a 100-μm mesh, thus removing non-degraded tissue. The filtered tissue was centrifuged at 1800 rpm for 10 minutes. The single cell pellets at the bottom were well suspended, thus obtaining amniotic epithelial cells. Living cells were visually counted under a microscope using a hemocytometer according to trypan blue dye method and, as a result, the number of cells counted immediately after isolation was 3.72×10^7 cells (FIG. 1 (A)). On the other hand, in the case in which amniotic epithelial cells were isolated from amniotic tissue by treatment with trypsin alone without the addition of DTT, the number of cells counted immediately after isolation was 9.25×10^5 cells (FIG. 1 (B))."}, "[2]": {"tested_on": "amniotic epithelial cell-derived adult stem cells", "experiment": "Culture and subculture of amniotic epithelial cells in the presence of ROCK inhibitor", "settings": "10 μM ROCK inhibitor added 4 days after isolation of the amniotic epithelial cells, FIG. 2", "experimental": "The obtained amniotic epithelial cells were cultured in a medium (Gibco) consisting of a 1:1 mixture of DMEM (Dulbecco modified Eagle medium) and F-12 (nutrient mixture) to which FBS, ascorbic acid, epidermal growth factor, insulin, an antibiotic and 10 μM of ROCK inhibitor Y-27632 have been added at the concentrations shown in Table 2 below. After 3 days of culture, the adult stem cells derived from the cultured amniotic epithelial cells were washed with HBSS buffer, and then incubated with Tryple-express (Gibco) or 0.25% trypsin-EDTA at 37° C. for 10 minutes. An FBS-containing medium was added thereto to inactivate trypsin, and then 5×10^6 stem cells derived from the amniotic epithelial cells were obtained and seeded into a fresh medium and subcultured. For each reseeding for subcultures, 10 μM of ROCK inhibitor was added to each fresh medium."}, "[3]": {"tested_on": "amniotic epithelial cell-derived adult stem cells", "experiment": "Proliferation of stem cells at various concentrations of ROCK inhibitor", "set-up": "proliferation of the cells: dose or concentration left out as unconfirmed", "experimental": "In order to examine the proliferation potential of amniotic epithelial cell-derived adult stem cells at various concentrations of ROCK inhibitor, the amniotic epithelial cells obtained in Example 1 were subcultured in DMEM/F-12 media containing FBS, ascorbic acid, epidermal growth factor, insulin and an antibiotic, to which ROCK inhibitor Y-27632 has been added at various concentrations of 100 μM, 1 μM, 100 nM and 10 nM. After 1 day and 4 days of the subculture, the optimum ROCK inhibitor Y-27632 concentration for the culture of the adult stem cells was examined."}, "[4]": {"tested_on": "amniotic epithelial cell-derived adult stem cells", "experiment": "Effect of the addition of ROCK inhibitor on proliferation of stem cells (Comparative Example 1)", "settings": "10 μM; observed 1, 2 and 3 days after seeding", "experimental": "In order to examine the effect of ROCK inhibitor, 4×10^6 amniotic epithelial cells obtained in Example 1 were subcultured in a DMEM/F-12 medium containing FBS, ascorbic acid, epidermal growth factor, insulin and an antibiotic for 4 days. Then, the cells were seeded into each of a medium containing 10 μM of the ROCK inhibitor Y-27632 and a medium containing no ROCK inhibitor and were observed 1 day, 2 days and 3 days after seeding."}, "[5]": {"tested_on": "amniotic epithelial cell-derived adult stem cells", "experiment": "Proliferation of stem cells according to ROCK inhibitor treatment period", "experimental": "In order to further improve the proliferation ability of the amniotic epithelial cells obtained in Example 1, the method used in the embryonic stem cell study (Watanabe et al., Nature Biotechnology, 25:681, 2007) and the method of adding ROCK inhibitor during the culture were compared. In other words, the culture in which 10 μM of ROCK inhibitor was added only before reseeding was compared with the culture in which the ROCK inhibitor was added even after reseeding."}}, "data": [{"molecule": "O[C@H](CS)[C@H](O)CS", "note": "(racemic) [DTT, dithiothreitol]", "values": [{"measurement": "number of cells counted immediately after isolation", "setting": "[1]; 5 g amniotic tissue, 10 mM DTT 30 minutes, then 0.05% trypsin-EDTA 37° C. 42 minutes", "result": "3.72×10^7 cells"}, {"measurement": "number of isolated amniotic epithelial cells and number of cells after culture, versus trypsin alone", "setting": "[1]; DTT and trypsin (FIG. 1 A, C) versus trypsin alone (B, D)", "result": "significantly larger"}]}, {"molecule": "CC(N)C1CCC(C(=O)Nc2ccncc2)CC1", "note": "(stereo not drawn) [ROCK inhibitor, Y-27632]", "values": [{"measurement": "number of the adult stem cells", "setting": "[2]", "result": "rapidly increased"}, {"measurement": "degree of proliferation", "setting": "[3]; 10 nM, after 1 day and 4 days of subculture, versus untreated control", "result": "did not greatly differ from that in the control"}, {"measurement": "cell morphology / differentiation", "setting": "[3]; 100 μM, after 1 day and 4 days of subculture", "result": "a cell morphology change or cell differentiation appeared"}, {"measurement": "proliferation of the cells", "setting": "[3]; after 1 day and 4 days of subculture", "result": "significantly increased"}, {"measurement": "most preferred concentration for the culture of the adult stem cells", "setting": "[3]; tested at 100 μM, 1 μM, 100 nM and 10 nM", "result": "about 10 μM"}, {"measurement": "apoptosis of the amniotic epithelial cells", "setting": "[4]", "result": "inhibited"}, {"measurement": "proliferation of adult stem cells", "setting": "[4]", "result": "significantly increased"}, {"measurement": "proliferation ability of the adult stem cells", "setting": "[5]; case (A): 10 μM ROCK inhibitor only before reseeding, cultured 1 day", "result": "clearly increased compared to the control"}, {"measurement": "proliferation ability of adult stem cells", "setting": "[5]; case (B): ROCK inhibitor continuously added during reseeding and culture, 1 day", "result": "superior compared to the case (A)"}]}, {"molecule": "trypsin: 0.05% trypsin-EDTA (Gibco) used to isolate single cells from amniotic tissue (protein, UniProt P00761 9-231, looked up, with EDTA, 0.05% trypsin-EDTA (Gibco) used to isolate single cells from amniotic tissue) Trypsin: IVGGYTCAANSIPYQVSLNSGSHFCGGSLINSQWVVSAAHCYKSRIQVRLGEHNIDVLEGNEQFINAAKIITHPNFNGNTLDNDIMLIKLSSPATLNSRVATVSLPRSCAAAGTECLISGWGNTKSSGSSYPSLLQCLKAPVLSDSSCKSSYPGQITGNMICVGFLEGGKDSCQGDSGGPVVCNGQLQGIVSWGYGCAQKNKPGVYTKVCNYVNWIQQTIAAN", "values": [{"measurement": "number of cells counted immediately after isolation", "setting": "[1]; treatment with trypsin alone without the addition of DTT", "result": "9.25×10^5 cells"}]}]}
